Source: patent publication US10221168B1, “Small-compound enhancers for functional O-mannosylation of alpha-dystroglycan, and uses thereof” (priority 2015, dated 2019)

Columns and labels:
[1] = system: functional O-mannosylation of α-DG on cell surfaces (CHO, C2C12, HSMB, FKRPD cells); experiment: Immuno-fluorescent staining with IIH6 antibody after compound treatment (FIG. 1); assay type: cell-based, Chinese hamster, mouse, human; details: FKRPD cells in 96 well-plates, series of concentrations, 48 hours
Procedure: The Chinese hamster ovary (CHO), mouse myoblasts (C2C12), normal human myoblasts (HSMB), human FKRP deficient myoblasts (FKRPD) were grown in 96 well-plates and treated with the compound at a series concentrations for 48 hours. The cells were examined with immuno-fluorescent staining using the IIH6 antibody that recognize the FOG of α-DG as the primary antibody followed by an appropriate secondary antibody conjugated with fluorophore. The detailed protocol is described in experiment section below.
(§1) Protein glycosylation is a multiple-step process that requires a large number of proteins in the secretory pathway of the cells. Thus we chose cell-based assay because our goal is to identify enhancer the FOG of α-DG on the cell surfaces. The assay system is HTS/HCS friendly and can adapt to various cell lines including myotubes as well as various readout methods including AlphaScreen, fluorescence density and HCS/fluorescence imaging. The standard operation protocol (SOP) for adhesion cells is described below and the FIG. 1 illustrates the assay process using myoblasts as the controls and screening cells and the IIH6 antibody as the probe. Other adhesion cells such CHO (Chinese hamster ovary) cell line can be implemented into this assay by simply removing the differentiation step.
The cells were fixed, permeablized, and then blocked with 10% BSA in PBS for 1 hour. […]

[2] = system: FOG of α-DG on the cell surfaces; experiment: Cell-based HTS/HCS assay, IIH6 antibody as probe (EC1.5); details: concentration of the compound required to enhance the FOG of α-DG by 50% over the controls; cell-based assays in vitro
From the text: as §1
Cell cultures: All cells are cultured at 37° C., 5% CO2, in appropriate media (F-12 for epithelial cells and DMEM for myoblasts) supplement with 10-20% fetal calf serum (FCS) and 1% antibiotics. […] The cells will be detached with trypsin EDTA and suspended in the cell culture media. The cells will be counted and seeded into the multiple-well plates as desired. Myotubes formation: When the myoblasts reach confluence, change the growth media to differential media (DEME with 2% horse serum) and incubate for 4-5 days.
The cells were fixed, permeablized, and then blocked with 10% BSA in PBS for 1 hour. […] After washing the cells with PBS for 2 times, the DAPI was used to stain the cells for 15 mins and wash 3 times with PBS. The images were captured with an inverted Olympus fluorescent microscope. For small compound localization experiment, the cells are incubated with the biotin conjugated compounds and then the cells were washed and incubated with streptavidin-Dye and then images will be captured to see the location of the compound-target-protein.
H, EC1.5<5 μM; M, EC1.5-20 μM; L, EC1.5 20-50 μM; VL, EC1.5>50 μM.

Row | Compound | enhancement of the functional O-mannosylation of α-DG on cell surfaces [1] | Activity (EC1.5) [2]
1 | CCC(c1nnnn1Cc1cccs1)N1CCN(c2nc3cc(N)cc(F)c3s2)CC1 (stereo not drawn) [Compound 46, 5-amino-7-fluoro-2-(4-(1-(1-(thiophen-2-ylmethyl)-1H-tetrazol-5-yl)propyl)piperazin-1-yl)benzothiazole] | dose-dependent enhancement | H (EC1.5<5 μM)
2 | CCC(c1nnnn1Cc1ccc(F)s1)N1CCN(c2nc3cc(N)cc(F)c3s2)C(C)C1 (stereo not drawn) [Compound 59, 5-amino-7-fluoro-2-(4-(1-(1-(5-fluoro-thiophen-2-ylmethyl)-1H-tetrazol-5-yl)propyl)-2-methyl-piperazin-1-yl)benzothiazole] |  | H (EC1.5<5 μM)
3 | CCC(c1nnnn1CCc1ccc(F)s1)N1CCN(c2nc3cc(N)cc(F)c3s2)C(C)C1 (stereo not drawn) [Compound 60, 5-amino-7-fluoro-2-(4-(1-(1-(5-fluoro-thiophen-2-ylethyl)-1H-tetrazol-5-yl)propyl)-2-methyl-piperazin-1-yl)benzothiazole] |  | H (EC1.5<5 μM)
4 | CCC(c1nnnn1CCc1cccs1)N1CCN(c2nc3cccc(F)c3s2)CC1 (stereo not drawn) [Compound 41, 7-fluoro-2-(4-(1-(1-(2-(thiophen-2-yl)ethyl)-1H-tetrazol-5-yl)propyl)piperazin-1-yl)benzothiazole] |  | L (EC1.5 20-50 μM)
5 | CCC(c1nnnn1Cc1ccco1)N1CCC(c2nc3ccccc3s2)CC1 (stereo not drawn) [Compound 4, 2-(1-(1-(1-(furan-2-ylmethyl)-1H-tetrazol-5-yl)propyl)piperidin-4-yl)benzothiazole] |  | M (EC1.5-20 μM)
6 | CCC(c1nnnn1CCc1cccs1)N1CCN(C2Sc3c(F)cc(N)cc3N2[N+](=O)[O-])CC1 (stereo not drawn) [Compound 62, 5-amino-7-fluoro-3-nitro-2-(4-(1-(1-(thiophen-2-ylethyl)-1H-tetrazol-5-yl)propyl)piperazin-1-yl)benzothiazole] |  | H (EC1.5<5 μM)
7 | CCC(c1nnnn1CCc1cccs1)N1CCN(C2Sc3c(F)cc(N)cc3N2N)CC1 (stereo not drawn) [Compound 61, 5-amino-7-fluoro-3-amino-2-(4-(1-(1-(thiophen-2-ylethyl)-1H-tetrazol-5-yl)propyl)piperazin-1-yl)benzothiazole] |  | H (EC1.5<5 μM)
8 | CCC(c1nnnn1Cc1cccs1)N1CCN(c2nc3ccc(N)cc3s2)CC1 (stereo not drawn) [Compound 11, 6-amino-2-(4-(1-(1-(thiophen-2-ylmethyl)-1H-tetrazol-5-yl)propyl)piperazin-1-yl)benzothiazole] |  | M (EC1.5-20 μM)
9 | CCC(c1nnnn1Cc1cccs1)N1CCN(c2nc3cc([N+](=O)[O-])ccc3s2)CC1 (stereo not drawn) [Compound 28, 5-nitro-2-(4-(1-(1-(thiophen-2-ylmethyl)-1H-tetrazol-5-yl)propyl)piperazin-1-yl)benzothiazole] |  | M (EC1.5-20 μM)
10 | CCC(c1nnnn1Cc1cccs1)N1CCN(c2nc3ccccc3o2)CC1 (stereo not drawn) [Compound 7, 2-(4-(1-(1-(thiophen-2-ylmethyl)-1H-tetrazol-5-yl)propyl)piperazin-1-yl)benzoxazole] |  | M (EC1.5-20 μM)
11 | CCC(c1nnnn1Cc1cccs1)N1CCN(c2nc3ccc(C(=O)OC)cc3s2)CC1 (stereo not drawn) [Compound 31, methyl 2-(4-(1-(1-(thiophen-2-ylmethyl)-1H-tetrazol-5-yl)propyl)piperazin-1-yl)benzothiazole-6-carboxylate] |  | L (EC1.5 20-50 μM)
12 | CCC(c1nnnn1Cc1cccs1)N1CCN(c2nc3cccc(Br)c3s2)CC1 (stereo not drawn) [Compound 34, 7-bromo-2-(4-(1-(1-(thiophen-2-ylmethyl)-1H-tetrazol-5-yl)propyl)piperazin-1-yl)benzothiazole] |  | L (EC1.5 20-50 μM)
13 | CCC(c1nnnn1Cc1cccs1)N1CCN(c2nc3ccc(OC)cc3s2)CC1 (stereo not drawn) [Compound 14, 6-methoxy-2-(4-(1-(1-(thiophen-2-ylmethyl)-1H-tetrazol-5-yl)propyl)piperazin-1-yl)benzothiazole] |  | M (EC1.5-20 μM)
14 | CCC(c1nnnn1Cc1cccs1)N1CCN(c2nc3c(F)c(N)c(N)c(F)c3s2)CC1 (stereo not drawn) [Compound 52, 5,6-diamino-4,7-difluoro-2-(4-(1-(1-(thiophen-2-ylmethyl)-1H-tetrazol-5-yl)propyl)piperazin-1-yl)benzothiazole] |  | H (EC1.5<5 μM)
15 | CCC(c1nnnn1Cc1cccs1)N1CCCN(c2nc3cc(N)cc(F)c3s2)CC1 (stereo not drawn) [Compound 71, 5-amino-7-fluoro-2-(4-(1-(1-(thiophen-2-ylmethyl)-1H-tetrazol-5-yl)propyl)1,4-diazepane-1-yl)benzothiazole] |  | H (EC1.5<5 μM)
16 | CCC(c1nnnn1Cc1ccc([N+](=O)[O-])s1)N1CCN(c2nc3cc(N)cc(F)c3s2)CC1 (stereo not drawn) [Compound 58, 5-amino-7-fluoro-2-(4-(1-(1-(5-nitro-thiophen-2-ylmethyl)-1H-tetrazol-5-yl)propyl)piperazin-1-yl)benzothiazole] |  | H (EC1.5<5 μM)
17 | CCC(c1nnnn1Cc1cccs1)N1CCN(c2nc3cc(N)ccc3s2)CC1 (stereo not drawn) [Compound 29, 5-amino-2-(4-(1-(1-(thiophen-2-ylmpthyl)-1H-tetrazol-5-yl)propyl)piperazin-1-yl)benzothiazole] |  | H (EC1.5<5 μM)
18 | CCC(c1nnnn1Cc1cccs1)N1CCN(c2nc3cccc(C(=O)OC)c3s2)CC1 (stereo not drawn) [Compound 35, Methyl 2-(4-(1-(1-(thiophen-2-ylmethyl)-1H-tetrazol-5-yl)propyl)piperazin-1-yl)benzothiazole-7-carboxylate] |  | L (EC1.5 20-50 μM)
19 | CCC(c1nnnn1Cc1cccs1)N1CCN(c2nc3c(F)cc(N)cc3s2)CC1 (stereo not drawn) [Compound 50, 6-amino-4-fluoro-2-(4-(1-(1-(thiophen-2-ylmethyl)-1H-tetrazol-5-yl)propyl)piperazin-1-yl)benzothiazole] |  | H (EC1.5<5 μM)
20 | CCC(c1nnnn1Cc1cccs1)N1CCN(c2nc3ccc(C(=O)O)cc3s2)CC1 (stereo not drawn) [Compound 32, 2-(4-(1-(1-(thiophen-2-ylmethyl)-1H-tetrazol-5-yl)propyl)piperazin-1-yl)benzothiazole-6-carboxylic acid] |  | L (EC1.5 20-50 μM)
